Assay results as given in PMC9320028, “A Series of New Pyrrole Alkaloids with ALR2 Inhibitory Activities from the Sponge Stylissa massa” (Marine Drugs, 2022).
Values joined by “and” are separate entries in the source; they are usually repeats but may differ in a detail not shown here. Equal entries are not always repeated.

Tests used:
[1] = target: T1, ALR2 (Homo sapiens, UniProt P15121); test: Surface plasmon resonance (SPR) binding assay, Biacore T200; conditions: ALR2 immobilized on CM5 chip, PBS-P+ buffer, room temperature; read-out: KD value (binding between ALR2 and compound, SPR)
T1 construct: The plasmid (pET28b, Novagen) containing the open reading frame of the human ALR2 gene; hexa-histidine (cleaved yes); made in house; host or cells: E. coli BL21 gold (DE3)
Procedure: (§1) For the AKR1B1 enzyme assay and SPR measurements, the protein was expressed and purified using the protocol related to the one reported previously. The plasmid (pET28b, Novagen) containing the open reading frame of the human ALR2 gene was kindly provided by Atagenix, Wuhan, Hubei, China. The E. coli strain BL21 gold (DE3) (Novagen) was used to express the hexa-histidine tagged protein after induction with IPTG (Roth) for 16 h at 293 K. The pellet from a 4 L culture was resuspended in a buffer containing 20 mM Tris and 500 mM NaCl (pH 8.0) before being sonicated and centrifuged. A HiTrap chelating HP column (GE Healthcare) was loaded with the supernatant. After a short washing step with a low imidazole concentration, the fusion protein was eluted by applying a gradient of imidazole. The buffer was exchanged with 20mM Tris-HCl, 10 mM NaCl, 1mM EDTA, and the tag cleaved by thrombin (yuanyeBio-Technology Co. Ltd. Shanghai, China). A Hiprep DEAE FastFlow 16/10 column (GE Healthcare) was loaded with the remaining solution. A NaCl gradient was used to elute the ALR2 from the column.
SPR binding analysis methodology can be used to study molecular interactions. Herein, SPR was applied to measure the interactions between compounds 13/14 and ALR2. Initially, ALR2 was prepared in 10 mM sodium acetate (pH 5.0) and then immobilized covalently by an amine-coupling reaction on a CM5 sensor chip. […]

[2] = target: T2, ALR2 (AKR1B1, aldose reductase) (Homo sapiens, UniProt P15121); test: ALR2 enzyme assay (in vitro); assay type: biochemical; conditions: for inhibition at 20 µM: read-out: ALR2 inhibition rate
T2 construct: The plasmid (pET28b, Novagen) containing the open reading frame of the human ALR2 gene; hexa-histidine (cleaved yes); made in house; host or cells: E. coli BL21 gold (DE3)
Procedure: as §1
In the first step of the polyol pathway, glucose reduction is accompanied by the conversation of NADPH to NADP, where only NADPH has an obvious spectral absorption around 340 nm and NADP has none. Thus, the decrease in OD340nm can represent the consumption of NADPH. Therefore, we detect the change of OD340nm before and after reaction to screen the effective ARIs or evaluate the AR activity; assays with epalrestat were used as positive controls. Briefly, the incubation system contains 10 µL ALR2 enzyme (20 µg/mL), 80 µL DL-glyceraldehyde (0.16 mmol/L) as the substrate, 1.0 mmol/L NADPH·4Na as a coenzyme, and 0.1 mol/L PBS (pH = 6.2). […] Then, the absorbance was measured using FlexStation 3 Reader (Molecular Devices, San Francisco, CA, USA) at 340 nm. The absorbance of wells treated with PBS and NADPH was considered as 100% (OD1) and the absorbance of wells treated with PBS and DL-glyceraldehyde was considered as 0% (OD2); the inhibitory rate was calculated by the formula ODcompounds − OD2/OD1 − OD2. […]

Row | Kd [1] | inhibition at 20 µM [2] [%] | IC50 ([2]; recombinant ALR2, DL-glyceraldehyde substrate, NADPH, PBS pH 6.2, 10 min at 25 °C, OD340nm, read-out: IC50 of ALR2 inhibitory activity) [µM] | SMILES
1 | 12.5 µM | > 50 |  | NC1=NC(=O)/C(=C2\CCNC(=O)c3[nH]ccc32)N1 [Compound 13]
2 | 6.9 µM and 6.89 µM | > 50 | 13.1 | NC1=NC(=O)/C(=C2/CCNC(=O)c3[nH]ccc32)N1 [Compound 14]
